≈ marks a conversion by molar mass, not a printed value. Each block holds one compound with its values, some of them ahead of it.
Key:
[1] = tested on: P-gp (MDR1); assay: MDCK-MDR1 efflux assay, Experimental Procedure 1; format: in vitro ADME; details: dog, Table 3A, pH 7.4
Description: MDCK-MDR1 cells grown in tissue culture flasks were trypsinized, suspended in medium, and the suspensions were applied to wells of a Millipore 96 well plate. The cells were allowed to grow and differentiate for five days, feeding at 2-day intervals. For Apical to Basolateral (A→B) permeability, the test article was added to the apical (A) side and amount of permeation was determined on the basolateral (B) side; for Basolateral to Apical (B→A) permeability, the test article was added to the B side and the amount of permeation was determined on the A side. […] Following centrifugation, the supernatant for donor and receiver side samples were analyzed by LC-MS/MS. Data was expressed as permeability (Papp):Papp=(dQ/dt)/(C0A) where dQ/dt is rate of permeation, C0 is initial concentration of test article, and A is the area of monolayer. In bidirectional permeability studies, the Efflux Ratio (Re) was calculated: [formula]

[2] = molecular target: ROCK2 (Homo sapiens (Human), UniProt O75116); assay: ROCK2 inhibition assay (HotSpot kit, 33P-ATP); format: biochemical; details: 10 μM ATP
[3] = molecular target: PRKX (Homo sapiens (Human), UniProt P51817); assay: PRKX inhibition assay (HotSpot kit, 33P-ATP); format: biochemical; details: Table 2B; 10 μM ATP; Compound 1 is geometric mean of multiple experiments
Description: (§1) Compounds as a powder were dissolved in dimethyl sulfoxide to make a 10 mM stock. […] The HotSpot kit employing ^33P-ATP was used with reactions conducted at 10 μM ATP for each tested enzyme. The percent activity relative to DMSO controls for each concentration was then fitted to a curve using GraphPad Prism to determine the IC50. […] Each experiment was run in the same lab with this procedure.

[4] = molecular target: ROCK1 (Homo sapiens (Human), UniProt Q13464); assay: ROCK1 inhibition assay (HotSpot kit, 33P-ATP); format: biochemical; details: 10 μM ATP
[5] = Kinetic solubility in PBS pH 7.4; format: physicochemical; details: aqueous buffer, kinetic from dmso stock, PBS pH 7.4, 25° C.
Description: The assay was performed in duplicate.

[6] = 24 hour mouse pharmacokinetics; format: in vivo, B6SJLF1/J mice; details: for AUC(0-inf) / AUC(0-t) / Cmax / half-life / Tmax: B6SJLF1/J, plasma
Description: Groups 2, 3, 4, 6, and 8: Test article was dissolved in a minimal amount of DMSO (Groups 2, 4, 6, 8: 40-50 μL, Group 3: 100 μL), 0.5% methylcellulose was added to final volume, then solution was sonicated for 2 minutes.
Group 7: Test article was dissolved in 100 μL DMSO, saline was added to final volume, then solution was sonicated for 2 minutes.
Groups 1, 5: The test article was administered as a single dose via slow bolus intravenous administration into a lateral tail vein, with a 27G needle.
Groups 2, 4, 6, 7, 8: The test article was administered as a single dose directly to the stomach by oral gavage.
Group 3: The test article was administered as a single dose in two parts with an approximate 1-2-minute rest between due to volume administered.
Approximately 150 μL of blood was collected by tail nick for the first time point and then the maximal volume by cardiac stick for the second, terminal time point in each mouse. The plasma was spun and separated within 30 minutes of collection and stored frozen at −20° C. until shipment.
Prior to the terminal blood collection, CSF was collected. […] The resulting data is shown in Tables 13, 14, 15, 16 and 17 below.

[7] = molecular target: PKA (Homo sapiens (Human), UniProt P17612); assay: PKA inhibition assay (HotSpot kit, 33P-ATP); format: biochemical; details: Table 2B; 10 μM ATP; Compound 1 is geometric mean of multiple experiments
Description: as §1

[8] = mouse, in vivo, po, 20 mg/kg
[9] = 24 hour rat pharmacokinetics; format: in vivo, Sprague-dawley rats; details: male
[10] = tested on: P-gp (MDR1); assay: MDCK-MDR1 efflux assay, Experimental Procedure 2; format: in vitro ADME; details: dog, Table 3B, pH 7.4
[11] = Table 2B, Compound 1 is geometric mean of multiple experiments
[12] = Sprague-Dawley, in vivo, IV 3 mg/kg
[13] = Sprague-Dawley, in vivo, PO 10 mg/kg

Sequence of ROCK1 (Q13464 whole entry): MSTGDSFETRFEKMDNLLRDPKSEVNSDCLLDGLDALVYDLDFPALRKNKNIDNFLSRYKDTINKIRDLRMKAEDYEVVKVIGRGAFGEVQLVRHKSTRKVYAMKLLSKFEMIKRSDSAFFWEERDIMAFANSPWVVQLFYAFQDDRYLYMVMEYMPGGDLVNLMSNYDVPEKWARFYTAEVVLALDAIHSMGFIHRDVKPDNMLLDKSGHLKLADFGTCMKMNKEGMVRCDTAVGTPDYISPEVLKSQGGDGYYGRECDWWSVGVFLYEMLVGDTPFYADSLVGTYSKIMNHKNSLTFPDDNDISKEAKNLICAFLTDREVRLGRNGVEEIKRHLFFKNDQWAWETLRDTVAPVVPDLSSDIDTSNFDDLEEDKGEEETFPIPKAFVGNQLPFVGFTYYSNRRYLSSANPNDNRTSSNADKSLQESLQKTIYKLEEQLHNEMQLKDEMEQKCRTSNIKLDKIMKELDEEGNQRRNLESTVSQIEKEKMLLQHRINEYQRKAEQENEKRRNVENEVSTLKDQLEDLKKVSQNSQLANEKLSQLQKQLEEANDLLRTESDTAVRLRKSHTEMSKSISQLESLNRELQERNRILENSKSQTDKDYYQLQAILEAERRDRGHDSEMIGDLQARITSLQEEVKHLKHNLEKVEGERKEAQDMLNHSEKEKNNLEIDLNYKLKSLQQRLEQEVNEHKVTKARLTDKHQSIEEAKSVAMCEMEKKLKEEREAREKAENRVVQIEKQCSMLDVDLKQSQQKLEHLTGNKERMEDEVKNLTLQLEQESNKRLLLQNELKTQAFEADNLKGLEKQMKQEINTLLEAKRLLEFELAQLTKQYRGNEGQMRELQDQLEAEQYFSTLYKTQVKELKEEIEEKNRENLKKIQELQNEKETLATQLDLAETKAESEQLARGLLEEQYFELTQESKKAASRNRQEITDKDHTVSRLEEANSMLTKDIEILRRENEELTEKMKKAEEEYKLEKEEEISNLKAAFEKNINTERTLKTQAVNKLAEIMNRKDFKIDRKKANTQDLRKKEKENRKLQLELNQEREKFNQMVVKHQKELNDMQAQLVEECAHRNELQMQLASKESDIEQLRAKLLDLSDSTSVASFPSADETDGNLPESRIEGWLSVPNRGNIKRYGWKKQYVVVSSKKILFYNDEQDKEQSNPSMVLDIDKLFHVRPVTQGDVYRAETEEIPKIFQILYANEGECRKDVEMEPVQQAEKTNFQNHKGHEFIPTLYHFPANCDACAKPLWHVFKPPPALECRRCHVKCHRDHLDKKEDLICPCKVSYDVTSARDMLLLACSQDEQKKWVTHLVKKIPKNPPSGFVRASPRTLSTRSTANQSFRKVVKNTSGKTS
Sequence of PRKX (P51817 whole entry): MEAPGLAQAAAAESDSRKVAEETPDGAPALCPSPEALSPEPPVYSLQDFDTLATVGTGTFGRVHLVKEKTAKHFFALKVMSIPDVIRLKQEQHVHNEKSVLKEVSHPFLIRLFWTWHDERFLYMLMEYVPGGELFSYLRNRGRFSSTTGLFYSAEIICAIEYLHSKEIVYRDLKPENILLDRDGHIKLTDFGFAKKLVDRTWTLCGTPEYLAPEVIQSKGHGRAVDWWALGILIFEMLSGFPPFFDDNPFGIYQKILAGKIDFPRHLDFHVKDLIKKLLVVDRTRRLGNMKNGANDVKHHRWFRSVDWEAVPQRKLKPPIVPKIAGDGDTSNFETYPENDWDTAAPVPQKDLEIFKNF
Sequence of ROCK2 (O75116 whole entry): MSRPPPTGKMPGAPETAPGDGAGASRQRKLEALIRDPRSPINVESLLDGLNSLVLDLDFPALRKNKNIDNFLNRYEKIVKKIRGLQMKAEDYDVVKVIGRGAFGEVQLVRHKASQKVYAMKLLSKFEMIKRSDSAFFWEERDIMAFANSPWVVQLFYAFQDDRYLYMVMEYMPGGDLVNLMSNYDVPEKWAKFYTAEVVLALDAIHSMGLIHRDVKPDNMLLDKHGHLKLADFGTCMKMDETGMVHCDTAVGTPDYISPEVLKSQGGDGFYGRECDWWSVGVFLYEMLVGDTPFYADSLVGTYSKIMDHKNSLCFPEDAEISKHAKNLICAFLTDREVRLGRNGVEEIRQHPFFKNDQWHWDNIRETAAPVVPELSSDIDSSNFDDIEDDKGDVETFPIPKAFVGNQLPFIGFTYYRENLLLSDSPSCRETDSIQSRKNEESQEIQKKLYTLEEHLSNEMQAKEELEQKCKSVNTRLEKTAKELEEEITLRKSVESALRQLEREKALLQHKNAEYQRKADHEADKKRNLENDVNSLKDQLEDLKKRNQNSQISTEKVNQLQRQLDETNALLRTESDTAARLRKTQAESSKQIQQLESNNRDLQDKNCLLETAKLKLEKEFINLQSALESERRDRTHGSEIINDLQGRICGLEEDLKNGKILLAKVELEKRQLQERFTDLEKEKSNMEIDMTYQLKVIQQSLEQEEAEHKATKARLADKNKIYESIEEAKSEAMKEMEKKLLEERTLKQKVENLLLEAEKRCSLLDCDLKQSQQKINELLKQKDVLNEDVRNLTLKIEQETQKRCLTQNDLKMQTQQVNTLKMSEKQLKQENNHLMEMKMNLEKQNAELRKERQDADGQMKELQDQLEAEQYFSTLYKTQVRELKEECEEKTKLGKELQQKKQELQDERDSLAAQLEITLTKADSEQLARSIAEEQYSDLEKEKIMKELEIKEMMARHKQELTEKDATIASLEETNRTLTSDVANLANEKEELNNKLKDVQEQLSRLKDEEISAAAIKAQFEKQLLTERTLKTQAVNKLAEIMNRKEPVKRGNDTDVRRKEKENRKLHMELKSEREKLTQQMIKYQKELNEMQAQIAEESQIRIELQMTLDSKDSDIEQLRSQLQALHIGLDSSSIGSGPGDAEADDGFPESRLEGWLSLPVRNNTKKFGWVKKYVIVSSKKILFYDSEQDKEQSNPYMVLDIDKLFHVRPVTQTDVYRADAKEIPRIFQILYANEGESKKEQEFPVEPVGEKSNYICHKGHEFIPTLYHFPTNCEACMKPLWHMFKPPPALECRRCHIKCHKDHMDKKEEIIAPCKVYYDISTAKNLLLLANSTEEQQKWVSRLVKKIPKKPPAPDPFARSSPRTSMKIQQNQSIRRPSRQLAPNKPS

efflux ratio at 2 h [1]: 28.4
SMILES: C[C@H]1O[C@@H](O[C@H]2[C@@H](O)C[C@H](O[C@H]3[C@@H](O)C[C@H](O[C@H]4CC[C@@]5(C)[C@H](CC[C@@H]6[C@@H]5C[C@@H](O)[C@]5(C)[C@@H](C7=CC(=O)OC7)CC[C@]65O)C4)O[C@@H]3C)O[C@@H]2C)C[C@H](O)[C@@H]1O [Digoxin, reference compound]

SMILES: COc1cccc(CNC(=O)c2cc3ccc(-c4cn[nH]c4)nc3[nH]2)c1 [Comparator 6, N-(3-methoxybenzyl)-6-(1H-pyrazol-4-yl)-1H-pyrrolo[2,3-b]pyridine-2-carboxamide, reference compound]
IC50 [2, 11]: 0.96 nM | IC50 [3]: 165 nM | IC50 [4, 11]: 10.2 nM

solubility kinetic at 2 h [5]: 13.3 µM (≈ 4.19 µg/mL)
SMILES: CC(=O)[C@H]1CC[C@H]2[C@@H]3CCC4=CC(=O)CC[C@]4(C)[C@H]3CC[C@]12C [Progesterone, reference compound]

efflux ratio at 2 h [1]: 133
SMILES: Cc1[nH]ncc1-c1ccc2cc(C(=O)NCc3c(Cl)cccc3C3(O)CC3)[nH]c2n1 [Compound 6, N-(2-chloro-6-(1-hydroxycyclopropyl)benzyl)-6-(5-methyl-1H-pyrazol-4-yl)-1H-pyrrolo[2,3-b]pyridine-2-carboxamide]

SMILES: Cn1c(C(=O)NCc2ccccc2F)cc2ccc(-c3cn[nH]c3)nc21 [Compound 1, N-(2-fluorobenzyl)-1-methyl-6-(1H-pyrazol-4-yl)-1H-pyrrolo[2,3-b]pyridine-2-carboxamide]
AUC(0-inf) ([6]; IV 3 mg/kg, male): 10200 ng·h/mL | AUC(0-t) ([6]; IV 3 mg/kg, male): 10100 ng·h/mL | Cmax ([6]; IV 3 mg/kg, male): 12200 ng/mL | half-life ([6]; IV 3 mg/kg, male): 0.987 h | AUC(0-t) ([6]; PO 10 mg/kg, female): 5670 ng·h/mL | Cmax ([6]; PO 10 mg/kg, female): 1110 ng/mL | Tmax ([6]; PO 10 mg/kg, female): 1 h | AUC(0-inf) ([6]; PO 10 mg/kg, male): 5750 ng·h/mL | AUC(0-t) ([6]; PO 10 mg/kg, male): 5350 ng·h/mL | Cmax ([6]; PO 10 mg/kg, male): 1040 ng/mL | Tmax ([6]; PO 10 mg/kg, male): 1 h | half-life ([6]; PO 10 mg/kg, male): 2.72 h | AUC(0-inf) ([6]; PO 100 mg/kg, male): 46000 ng·h/mL | AUC(0-t) ([6]; PO 100 mg/kg, male): 44100 ng·h/mL | Cmax ([6]; PO 100 mg/kg, male): 4070 ng/mL | Tmax ([6]; PO 100 mg/kg, male): 8 h | half-life ([6]; PO 100 mg/kg, male): 4.47 h | AUC0-t/D ([6]; IV 3 mg/kg, male): 3380 (h*ng/mL)/(mg/kg) | Tlast ([6]; IV 3 mg/kg, male): 8 h | AUC0-t/D ([6]; PO 10 mg/kg, female): 567 (h*ng/mL)/(mg/kg) | Tlast ([6]; PO 10 mg/kg, female): 24 h | AUC0-t/D ([6]; PO 10 mg/kg, male): 535 (h*ng/mL)/(mg/kg) | Tlast ([6]; PO 10 mg/kg, male): 12 h | Ratio to 10 mg/kg Dose Level, AUC0-t ([6]; PO 100 mg/kg vs 10 mg/kg, male): 8.24 | Ratio to 10 mg/kg Dose Level, AUC0-∞ ([6]; PO 100 mg/kg vs 10 mg/kg, male): 8.00 | Ratio to 10 mg/kg Dose Level, Cmax ([6]; PO 100 mg/kg vs 10 mg/kg, male): 3.91 | AUC0-t/D ([6]; PO 100 mg/kg, male): 441 (h*ng/mL)/(mg/kg) | Tlast ([6]; PO 100 mg/kg, male): 24 h | IC50 [7]: 238 nM | IC50 ([2]; Table 2A): 2.3 nM | IC50 [2, 11]: 2.7 nM | mortality and adverse events [8]: no animals died or had adverse events | plasma level in 24 hours [8]: below the detection limit | solubility kinetic at 2 h [5]: 0.64 µM (≈ 0.224 µg/mL) | AUC0-t/D ([9]; IV 3 mg/kg): 1541 (h*ng/mL)/(mg/kg) | Tlast ([9]; IV 3 mg/kg): 24 h | AUC0-t/D ([9]; PO 10 mg/kg): 261 (h*ng/mL)/(mg/kg) | Tlast ([9]; PO 10 mg/kg): 24 h | AUC(0-inf) [9, 12]: 4650 ng·h/mL | AUC(0-t) [9, 12]: 4620 ng·h/mL | Cmax [9, 12]: 5540 ng/mL | half-life [9, 12]: 5.33 h | AUC(0-t) [9, 13]: 2610 ng·h/mL | Cmax [9, 13]: 409 ng/mL | Tmax [9, 13]: 2.67 h | half-life [9, 13]: 3.67 h | AUC(0-inf) ([9]; Sprague-Dawley, plasma, PO 10 mg/kg): 2660 ng·h/mL | efflux ratio at 2 h [1]: 1.46 | IC50 [3]: 31.4 nM | IC50 ([4]; Table 2A): 16.4 nM | IC50 [4, 11]: 30.3 nM | efflux ratio at 2 h, 1 µM [10]: 0.8

IC50 [7]: 1400 nM | IC50 ([2]; Table 2A): 587 nM | efflux ratio at 2 h [1]: 256 | IC50 [3]: 376 nM | IC50 ([4]; Table 2A): > 1000 nM
SMILES: Cc1[nH]ncc1-c1ccc2cc(C(=O)NCc3c(Cl)cccc3OC3COC3)[nH]c2n1 [Comparator 3, N-(2-chloro-6-(oxetan-3-yloxy)benzyl)-6-(5-methyl-1H-pyrazol-4-yl)-1H-pyrrolo[2,3-b]pyridine-2-carboxamide, reference compound]

SMILES: O=C(NCc1ccccc1F)c1cc2ccc(-c3cn[nH]c3C(F)(F)F)nc2[nH]1 [Compound 11, N-[(2-Fluorophenyl)methyl]-6-[3-(trifluoromethyl)-2H-pyrazol-4-yl]-1H-pyrrolo[2,3-b]pyridine-2-carboxamide]
IC50 [2, 11]: 1370 nM | IC50 [4, 11]: > 1000 nM

Source: patent US20240246972A1, “AZAINDOLE ROCK INHIBITORS” (priority 2022, published 2024)
